The structures appear in SMILES notation.

Here are results for 1 compound from US20240366930A1, “WEARABLE BIOELECTRONICS FOR PROGRAMMABLE DELIVERY OF THERAPY” (The Regents of the University of California, priority 2023, published 2024).

Experiment [1] concerns mouse wound model (6 mm punch biopsy wound held open by a silicone splint ring). Put plainly: In vivo mouse wound model: re-epithelialization (H&E) after Flx+ delivery from wearable bioelectronic bandage. The source says: (§1) FIG. 6 illustrates testing of the efficacy of the bioelectronic bandage in vivo on a mouse wound model. We created a 6 mm punch biopsy wound held open by a silicone splint ring to minimize wound contraction (FIG. 6A). Wound contraction is a major wound healing process in mice but not humans. It confounds the histological analysis of the wound reponse to therapy, particularly re-epithelialization [12b, 13]. A gas-permeable, transparent adhesive dressing, Tegaderm™, fixes the bioelectronic bandage to the mouse (FIG. 6A, right) so that the mouse can move around its cage without interference (FIG. 6B). This is possible because the lightweight bandage (2.5 g) represents less than 10% of the mouse weight. For this test, we programmed the bandage to deliver Flx^+ for three days for six hours per day (FIG. 6C).
(§2) We utilized a machine-learning algorithm reported to analyze images of wounds and evaluate their condition and healing progression (FIG. 6D). The algorithm automatically marked the wound area and analyzed the wound size (FIG. 6E). […] To further investigate healing, the wounds were fully excised at the end of the experiment, fixed, and stained with hematoxylin and eosin (H&E) to assess wound re-epithelialization (FIG. 6G-H). […] This variability allowed us to qualitatively correlate the dose of Flx^+ and wound healing as measured by the percentage of re-epithelization (FIG. 6J, right). […]

Experiment [2] relates to mouse wound model (6 mm punch biopsy wound). Put plainly: Wound size analysis from wound images by machine-learning algorithm. Type of experiment: in vivo. Conditions: fluoxetine-treated wounds, similar trend to control.
Excerpt: as §1, §2

The test system of experiment [3] is M1 and M2 macrophages in the wound. Nature of the experiment: Macrophage analysis of the wound (immunohistochemistry, M1 iNOS / M2 CD206 / F4/80). Type of experiment: in vivo, mouse. The source says: All cells (stained by DAPI, shown in blue), M1 (stained by iNOS, shown in green), M2 (stained by CD206, shown in red), and overall macrophages (stained by F4/80, shown in gray) were imaged and presented, FIG. 7b is an overlay of M1 and M2 staining, showing the distribution and ratio of macrophage subtypes, FIG. 7c is a box plot showing statistics of the M1/M2 ratio, which was 1.80+/−0.62 in the control group and 1.31+/−0.46 for the fluoxetine-treated group. […] The blue dot represents the M1/M2 ratio from the control group, and the red dot represents the fluoxetine-treated group. The dashed lines indicate the projected wound age, while the solid line represents the trend plotted from the data in the reference..
After analyzing the promising re-epithelization data, we delved deeper into another crucial indicator of wound healing: the M1/M2 macrophage ratio (FIG. 7). Macrophages play a pivotal role in the immune response and are crucially involved in the healing and regeneration of wounds. Although macrophages are phenotypically heterogeneous over a continuum, a simplified classification based on their polarized functions during the different stages of wound repair defines the M1 subtype that carries out pro-inflammatory activities and the M2 subtype that is anti-inflammatory and promotes tissue repair. […] Meanwhile, the number of M2-like macrophages increased in the center of the fluoxetine-treated wound, as depicted in FIG. 7A.

Turning to `CNCCC(Oc1ccc(C(F)(F)F)cc1)c1ccccc1` (stereo not shown) [fluoxetine], the “increase in re-epithelialization compared to control” value in experiment [1] (Flx+ delivered from the bioelectronic bandage, three days, six hours per day, H&E of excised wounds, P<0.05) turned out to be 39.9%. In addition, the “reepithelization in mouse 2 (>300 nMol per day Flx+) versus mouse 15 (10× smaller dose)” value in experiment [1] (qualitative dose comparison, bioelectronic bandage) was “much faster”. Besides, the “wound size trend over time” value in experiment [2] is reported as “slight increase in size at day 1, followed by a decrease on subsequent days”. In experiment [3] (day 3, n=13 mice, P<0.05), the “decrease in M1/M2 ratio compared to control” value came out at 27.2%. Further, in experiment [3] (fluoxetine-treated group, day 3, n=13 mice), the M1/M2 ratio is listed as 1.31+/−0.46. In addition, the “number of M2-like macrophages in the center of the wound” value in experiment [3] (fluoxetine-treated wound, day 3) was “increased”. The “M1 macrophage infiltration of the center of the wound” value in experiment [3] (three days after injury, control wound significantly infiltrated) is “no change”.
